Reference: patent US20240398868A1 (GEL4MED, INC., priority 2020, published 2024)

Experiment: Net charge and isoelectric point of peptide
Assay type: physicochemical
Details: pH 7
Text: The peptide may be purified. For example, the peptide may be lyophilized. […] Other peptides are within the scope of the disclosure.
Exemplary peptides having a charge of +5 to +9 include […](d)[…], […](d)[…], and […](d)[…]. In other embodiments, the purified peptide may be substantially neutral. […] Net charge may be selected by peptide design. Design of electrostatic charge in the peptide hydrogel may allow control of charge interaction with cell membrane and proteins.

Which net charge does the source give for VEVSVSVEV(d)PPTEVSVEVEV here?
The net charge was “net negative charge”.
